Data as given in paper PMC7161708 (Acta Pharmaceutica Sinica. B, 2019).

Legend:
[1] = tested on: phosphorylation of p70S6K; assay: Inhibition of p70S6K phosphorylation, α-screen assay in SH-SY5Y cell; assay type: cell-based; conditions: mean ± SD (n ≥ 3)
[2] = from PAMPA–BBB Pe
[3] = in vitro; conditions: PAMPA

| SMILES | Inhibition ratio of p70S6K phosphorylation at 20 μmol/L (%) [1] [%] | Prediction of BBB penetration [2] | Papp at 10 h, 100 μg/mL [3] [×10⁻⁶ cm/s] |
| --- | --- | --- | --- |
| O=C(Nc1ncc([N+](=O)[O-])s1)c1ccccc1O [Compound 2, tizoxanide, reference compound] | 43.09±2.98 | – | – |
| CC(=O)Oc1ccccc1C(=O)Nc1nccs1 [Compound 4, 2-Acetyloxy-N-(thiazol-2-yl)benzamide] | 9.98±5.16 | – | – |
| CC(=O)Oc1ccccc1C(=O)Nc1ncc(C#N)s1 [Compound 5, 2-Acetyloxy-N-(5-cyanothiazol-2-yl)benzamide] | 70.85±3.56 | – | – |
| COC(=O)c1cnc(NC(=O)c2ccccc2OC(C)=O)s1 [Compound 6, Methyl 2-(2-acetoxybenzamido)thiazole-5-carboxylate] | 32.72±7.87 | – | – |
| CC(=O)Oc1ccccc1C(=O)Nc1ncc(C(=O)OCc2ccccc2)s1 [Compound 7, Benzyl 2-(2-acetoxybenzamido)thiazole-5-carboxylate] | 18.88±5.27 | – | – |
| CSc1cnc(NC(=O)c2ccccc2OC(C)=O)s1 [Compound 8, 2-Acetyloxy-N-(5-(methylthio)thiazol-2-yl)benzamide] | 44.74±9.98 | – | – |
| CC(=O)Oc1ccccc1C(=O)Nc1ncc(S(C)(=O)=O)s1 [Compound 9, 2-Acetyloxy-N-(5-(methylsulfonyl)thiazol-2-yl)benzamide] | 10.67±10.51 | – | – |
| CC(=O)Oc1ccccc1C(=O)Nc1ncc(C(=O)O)s1 [Compound 10, 2-(2-Acetoxybenzamido)thiazole-5-carboxylic acid] | −4.51±19.40 | – | – |
| CC(=O)Oc1ccccc1C(=O)Nc1ncc(N2CCCCC2)s1 [Compound 11, 2-Acetyloxy-N-(5-(piperidin-1-yl)thiazol-2-yl)benzamide] | 56.27±4.61 | – | – |
| CC(=O)Oc1ccccc1C(=O)Nc1ncc(-n2cccc2)s1 [Compound 13, 2-Acetyloxy-N-(5-(1H-pyrrol-1-yl)thiazol-2-yl)benzamide] | 69.85±0.53 | – | – |
| CC(=O)Oc1ccccc1C(=O)Nc1ncc(N2CCNCC2)s1 [Compound 14, 2-Acetyloxy-N-(5-(piperazin-1-yl)thiazol-2-yl)benzamide] | 28.21±6.44 | – | – |
| O=C(Nc1ncc(N2CCOCC2)s1)c1ccc(F)cc1O [Compound 15, 4-Fluoro-2-hydroxy-N-(5-morpholinothiazol-2-yl)benzamide] | 42.25±0.19 | – | – |
| O=C(Nc1ncc(N2CCOCC2)s1)c1ccc(Cl)cc1O [Compound 16, 4-Chloro-2-hydroxy-N-(5-morpholinothiazol-2-yl)benzamide] | 21.02±4.56 | – | – |
| O=C(Nc1ncc(N2CCOCC2)s1)c1ccc(Br)cc1O [Compound 17, 4-Bromo-2-hydroxy-N-(5-morpholinothiazol-2-yl)benzamide] | 15.41±5.32 | – | – |
| O=C(Nc1ncc(N2CCOCC2)s1)c1ccc(C(F)(F)F)cc1O [Compound 18, 2-Hydroxy-N-(5-morpholinothiazol-2-yl)-4-(trifluoromethyl)benzamide] | 8.76±5.93 | – | – |
| O=C(Nc1ncc(N2CCOCC2)s1)c1ccccc1O [Compound 19, 2-Hydroxy-N-(5-morpholinothiazol-2-yl)benzamide] | 53.79±3.85 | – | – |
| O=C(Nc1ncc(N2CCOCC2)s1)c1cccc(O)c1 [Compound 20, 3-Hydroxy-N-(5-morpholinothiazol-2-yl)benzamide] | 83.86±1.54 | CNS− (Compounds with Pe < 1.13 × 10^−6 cm/s show low BBB permeation (CNS−)) | 0.45 ± 0.03 |
| O=C(Nc1ncc(N2CCOCC2)s1)c1ccc(O)cc1 [Compound 21, 4-Hydroxy-N-(5-morpholinothiazol-2-yl)benzamide] | 79.20±1.87 | CNS− (Compounds with Pe < 1.13 × 10^−6 cm/s show low BBB permeation (CNS−)) | 0.09 ± 0.01 |
| CC(=O)Oc1ccc(C(=O)Nc2ncc(N3CCOCC3)s2)cc1 [Compound 23, 4-Acetyloxy-N-(5-morpholinothiazol-2-yl)benzamide] | 84.96±0.98 | CNS+ (Compounds with permeabilities Pe > 3.08 × 10^−6 cm/s could cross the BBB by passive diffusion (CNS+)) | 4.92 ± 0.31 |
| O=C(Nc1ncc(N2CCOCC2)s1)c1ccccc1 [Compound 24, N-(5-Morpholinothiazol-2-yl)benzamide] | 77.51±1.48 | CNS+ (Compounds with permeabilities Pe > 3.08 × 10^−6 cm/s could cross the BBB by passive diffusion (CNS+)) | 12.6 ± 1.22 |
| O=C(Nc1ncc(N2CCOCC2)s1)c1ccccc1C(F)(F)F [Compound 25, N-(5-Morpholinothiazol-2-yl)-2-(trifluoromethyl)benzamide] | 22.05±1.85 | – | – |

| SMILES | Inhibition ratio of p70S6K phosphorylation at 20 μmol/L (%) [1] [%] | Prediction of BBB penetration [2] | Papp at 10 h, 100 μg/mL [3] [×10⁻⁶ cm/s] |
| --- | --- | --- | --- |
| O=C(Nc1ncc(N2CCOCC2)s1)c1ccccc1F [Compound 26, 2-Fluoro-N-(5-morpholinothiazol-2-yl)benzamide] | 65.98±1.74 | – | – |
| O=C(Nc1ncc(N2CCOCC2)s1)c1ccccc1[N+](=O)[O-] [Compound 27, N-(5-Morpholinothiazol-2-yl)-2-nitrobenzamide] | 53.24±5.72 | – | – |
| Cc1ccccc1C(=O)Nc1ncc(N2CCOCC2)s1 [Compound 28, 2-Methyl-N-(5-morpholinothiazol-2-yl)benzamide] | 55.38±1.66 | – | – |
| COc1ccccc1C(=O)Nc1ncc(N2CCOCC2)s1 [Compound 29, 2-Methoxy-N-(5-morpholinothiazol-2-yl)benzamide] | 26.90±6.23 | – | – |
| O=C(Nc1ncc(N2CCOCC2)s1)c1cccc2ccccc12 [Compound 30, N-(5-Morpholinothiazol-2-yl)-1-naphthamide] | 78.75±2.50 | CNS+ (Compounds with permeabilities Pe > 3.08 × 10^−6 cm/s could cross the BBB by passive diffusion (CNS+)) | 5.76 ± 0.55 |
| O=C(Nc1ncc(N2CCOCC2)s1)c1ccc2ccccc2c1 [Compound 31, N-(5-Morpholinothiazol-2-yl)-2-naphthamide] | 80.96±1.60 | CNS+ (Compounds with permeabilities Pe > 3.08 × 10^−6 cm/s could cross the BBB by passive diffusion (CNS+)) | 3.42 ± 0.07 |
| O=C(Nc1ncc(N2CCOCC2)s1)C1CC1 [Compound 39, N-(5-Morpholinothiazol-2-yl)cyclopropanecarboxamide] | 63.76±1.31 | – | – |
| O=C(Nc1ncc(N2CCOCC2)s1)C1CCC1 [Compound 40, N-(5-Morpholinothiazol-2-yl)cyclobutanecarboxamide] | 66.21±3.74 | – | – |
| O=C(Nc1ncc(N2CCOCC2)s1)C1CCCC1 [Compound 41, N-(5-Morpholinothiazol-2-yl)cyclopentanecarboxamide] | 63.37±4.65 | – | – |
| O=C(Nc1ncc(N2CCOCC2)s1)C1CCCCC1 [Compound 42, N-(5-Morpholinothiazol-2-yl)cyclohexanecarboxamide] | 61.15±1.44 | – | – |
| O=C(Nc1ncc(N2CCOCC2)s1)C1CCCCCC1 [Compound 43, N-(5-Morpholinothiazol-2-yl)cycloheptanecarboxamide] | 51.10±1.59 | – | – |
| CC(=O)Nc1ncc(N2CCOCC2)s1 [Compound 45, N-(5-Morpholinothiazol-2-yl)acetamide] | 43.86±4.45 | – | – |
| CCC(=O)Nc1ncc(N2CCOCC2)s1 [Compound 46, N-(5-Morpholinothiazol-2-yl)propionamide] | 44.98±8.58 | – | – |
| CCCC(=O)Nc1ncc(N2CCOCC2)s1 [Compound 47, N-(5-Morpholinothiazol-2-yl)butyramide] | 61.71±2.51 | – | – |
| CCCCCC(=O)Nc1ncc(N2CCOCC2)s1 [Compound 48, N-(5-Morpholinothiazol-2-yl)hexanamide] | 61.32±5.39 | – | – |
| CC(C)CC(=O)Nc1ncc(N2CCOCC2)s1 [Compound 49, 3-Methyl-N-(5-morpholinothiazol-2-yl)butanamide] | 40.38±3.37 | – | – |
| O=C(CCC(F)(F)F)Nc1ncc(N2CCOCC2)s1 [Compound 50, 4,4,4-Trifluoro-N-(5-morpholinothiazol-2-yl)butanamide] | 61.35±5.44 | – | – |
| O=C(Cc1ccccc1)Nc1ncc(N2CCOCC2)s1 [Compound 51, N-(5-Morpholinothiazol-2-yl)-2-phenylacetamide] | 47.82±3.90 | – | – |
| O=C1CCCCC1C(=O)Nc1ncc(N2CCOCC2)s1 (stereo not drawn) [Compound 53, N-(5-Morpholinothiazol-2-yl)-2-oxocyclohexanecarboxamide] | 44.94±4.00 | – | – |
| CC(=O)CC(=O)Nc1ncc(N2CCOCC2)s1 [Compound 54, N-(5-Morpholinothiazol-2-yl)-3-oxobutanamide] | 66.46±3.73 | – | – |
| COC[C@H]1OC(=O)c2coc3c2[C@@]1(C)C1=C(C3=O)[C@@H]2CCC(=O)[C@@]2(C)C[C@H]1OC(C)=O [WORT, wortmannin, reference compound] | 90.68±1.46 | – | – |
